Consider 19 compounds from PubChem BioAssay AID192 (DTP/NCI, 2004).

SMILES strings stand for the structures. Several values for one entry are separate records, joined by “and”; a condition that tells them apart may be missing. Identical values can stand only once. Inconclusive results and toxic doses are left out.

The assay deals with BDF1 mice, B16 melanoma ip, median survival T/C. Nature of the assay: NCI In Vivo Anticancer Drug Screen. Data for tumor model B16 Melanoma (intraperitoneal) in B6D2F1 (BDF1) mice. The following applies: endpoint: median survival time, higher = longer survival. Put shortly: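 Tumor-bearing mice received test compound or vehicle. Survival or tumor size was then measured in both groups. The treated-group figure was divided by the control-group figure.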

Setting [1] is: dose: 50.0 mg/kg/injection, schedule: Q01DX009 (ip), vehicle: Klucel (hydroxypropylcellulose) (HPC).
Where [2] appears, read: dose: 100.0 mg/kg/injection, schedule: Q01DX009 (ip), vehicle: Klucel (hydroxypropylcellulose) (HPC).
Setting [3] is: dose: 200.0 mg/kg/injection, schedule: Q01DX009 (ip), vehicle: Klucel (hydroxypropylcellulose) (HPC).
The mark [4] stands for this setting: dose: 50.0 mg/kg/injection, schedule: Q01DX009 (ip), vehicle: saline with Tween-80.
Where [5] appears, read: dose: 100.0 mg/kg/injection, schedule: Q01DX009 (ip), vehicle: saline with Tween-80.
The mark [6] stands for this setting: dose: 100.0 mg/kg/injection, schedule: Q04DX003 (ip), vehicle: saline with Tween-80.
Where [7] appears, read: dose: 6.25 mg/kg/injection, schedule: Q01DX009 (ip), vehicle: Klucel (hydroxypropylcellulose) (HPC).
Where [8] appears, read: dose: 12.5 mg/kg/injection, schedule: Q01DX009 (ip), vehicle: Klucel (hydroxypropylcellulose) (HPC).
The mark [9] stands for this setting: dose: 25.0 mg/kg/injection, schedule: Q01DX009 (ip), vehicle: Klucel (hydroxypropylcellulose) (HPC).
Setting [10] is: dose: 18.75 mg/kg/injection, schedule: Q01DX009 (ip), vehicle: saline with Tween-80.
The mark [11] stands for this setting: dose: 37.5 mg/kg/injection, schedule: Q01DX009 (ip), vehicle: saline with Tween-80.
Setting [12] is: dose: 75.0 mg/kg/injection, schedule: Q01DX009 (ip), vehicle: saline with Tween-80.

With `O=Cc1ccc(C=O)c(Cl)c1`, the T/C was 97 % of control under setting [1]; 109 % of control under setting [2]; 107 % of control under setting [3]; 104 % of control (dose: 400.0 mg/kg/injection, schedule: Q01DX009 (ip), vehicle: Klucel (hydroxypropylcellulose) (HPC)).
With `CCN1CSC(=S)N(CC)C1`, the T/C was 104 % of control (dose: 12.5 mg/kg/injection, schedule: Q01DX009 (ip), vehicle: saline with Tween-80); 102 % of control (dose: 25.0 mg/kg/injection, schedule: Q01DX009 (ip), vehicle: saline with Tween-80); 89 % of control (dose: 25.0 mg/kg/injection, schedule: Q04DX003 (ip), vehicle: saline with Tween-80); 97 % of control under setting [4]; 100 % of control (dose: 50.0 mg/kg/injection, schedule: Q04DX003 (ip), vehicle: saline with Tween-80); 100 % of control under setting [5]. Further, under setting [6], the T/C was 92 % of control.
For the compound `CNc1ncnc2c1cnn2C`, the T/C was 97 % of control (dose: 10.0 mg/kg/injection, schedule: Q01DX009 (ip), vehicle: Klucel (hydroxypropylcellulose) (HPC)); 89 % of control (dose: 20.0 mg/kg/injection, schedule: Q01DX009 (ip), vehicle: Klucel (hydroxypropylcellulose) (HPC)); 89 % of control (dose: 40.0 mg/kg/injection, schedule: Q01DX009 (ip), vehicle: Klucel (hydroxypropylcellulose) (HPC)).
As for `CCC[CH2][Sn]1([CH2]CCC)[O]OC(c2ccc(OC)cc2)[O]1` (stereo not drawn), the T/C (dose: 3.12 mg/kg/injection, schedule: Q01DX009 (sc), vehicle: olive oil, sesame oil, peanut oil) is 93 % of control.
For `c1ccc(N2CCOCC2)cc1`, the T/C by setting is: under setting [2], 96 % of control; under setting [3], 96 % of control.
Regarding `Cc1c2cc3c(c1O)C(=O)CC(O3)c1ccc(O)c(c1)-c1cccc(c1O)C(=O)OCC1OC(O2)C(O)C(O)C1O` (stereo not drawn), the T/C by setting is: (dose: 0.13 mg/kg/injection, schedule: Q01DX009 (ip), vehicle: Klucel (hydroxypropylcellulose) (HPC)) 93 % of control; (dose: 0.25 mg/kg/injection, schedule: Q01DX009 (ip), vehicle: Klucel (hydroxypropylcellulose) (HPC)) 95 % of control; (dose: 0.5 mg/kg/injection, schedule: Q01DX009 (ip), vehicle: Klucel (hydroxypropylcellulose) (HPC)) 89 % of control; (dose: 1.0 mg/kg/injection, schedule: Q01DX009 (ip), vehicle: Klucel (hydroxypropylcellulose) (HPC)) 88 % of control.
`NC(CCCC(=O)O)P(=O)(O)O` (stereo not drawn): the T/C is 98 % of control under setting [1] and 98 % of control under setting [2].
As to `C=CCN1/C(=C/C=C\c2sc3ccccc3[n+]2CC=C)Sc2ccccc21`, the T/C reads like this: (dose: 0.06 mg/kg/injection, schedule: Q01DX009 (ip), vehicle: saline with Tween-80) 100 % of control; (dose: 0.13 mg/kg/injection, schedule: Q01DX009 (ip), vehicle: saline with Tween-80) 97 % of control; (dose: 0.25 mg/kg/injection, schedule: Q01DX009 (ip), vehicle: saline with Tween-80) 97 % of control; (dose: 0.5 mg/kg/injection, schedule: Q01DX009 (ip), vehicle: saline with Tween-80) 95 % of control.
As for `CCCCCCCCCCCCCCCCCN`, the T/C by setting is: under setting [7], 103 % of control; under setting [8], 100 % of control; under setting [9], 93 % of control.
As to `CCSc1nc2nccnc2c(=O)[nH]1`, the T/C is 102 % of control under setting [2] and 97 % of control under setting [3].
For `CN1C(=O)CCS(=O)(=O)C1c1ccc(Cl)cc1` (stereo not drawn), the T/C was 109 % of control (dose: 0.13 mg/kg/injection, schedule: Q01DX009 (ip), vehicle: saline); 101 % of control (dose: 0.25 mg/kg/injection, schedule: Q01DX009 (ip), vehicle: saline); 95 % of control (dose: 0.38 mg/kg/injection, schedule: Q01DX009 (ip), vehicle: saline); 100 % of control (dose: 0.39 mg/kg/injection, schedule: Q01DX009 (ip), vehicle: Klucel (hydroxypropylcellulose) (HPC)); 111 % of control (dose: 0.5 mg/kg/injection, schedule: Q01DX009 (ip), vehicle: saline); 98 % of control (dose: 0.75 mg/kg/injection, schedule: Q01DX009 (ip), vehicle: saline). For the same compound, the T/C reads like this: (dose: 1.0 mg/kg/injection, schedule: Q01DX009 (ip), vehicle: saline) 115 % of control; (dose: 1.5 mg/kg/injection, schedule: Q01DX009 (ip), vehicle: saline) 101 % of control; (dose: 1.56 mg/kg/injection, schedule: Q01DX009 (ip), vehicle: Klucel (hydroxypropylcellulose) (HPC)) 109 % of control; (dose: 2.0 mg/kg/injection, schedule: Q01DX009 (ip), vehicle: saline) 104 % of control; (dose: 3.0 mg/kg/injection, schedule: Q01DX009 (ip), vehicle: saline) 104 % of control; (dose: 3.12 mg/kg/injection, schedule: Q01DX009 (ip), vehicle: Klucel (hydroxypropylcellulose) (HPC)) 100 % of control. Also, under setting [7], the T/C was 102 % of control.
In the case of `Cc1ccc2c(Nc3ccc(NS(C)(=O)=O)cc3)c3ccccc3nc2c1C`, the T/C runs as follows: (dose: 5.0 mg/kg/injection, schedule: Q01DX009 (ip), vehicle: saline sonified) 90 % of control; (dose: 20.0 mg/kg/injection, schedule: Q01DX009 (ip), vehicle: other) 117 % of control; (dose: 20.0 mg/kg/injection, schedule: Q01DX009 (ip), vehicle: saline with Tween-80) 158 % of control; (dose: 40.0 mg/kg/injection, schedule: Q01DX009 (ip), vehicle: saline sonified) 185 % of control; (dose: 40.0 mg/kg/injection, schedule: Q01DX009 (ip), vehicle: saline with Tween-80) 163 % of control; (dose: 50.0 mg/kg/injection, schedule: Q01DX009 (ip), vehicle: saline) 100 % of control.
In the case of `CC(=O)CC(=O)Nc1cc(C)c(NC(=O)CC(C)=O)cc1C`, the T/C is 93 % of control under setting [2] and 93 % of control under setting [3].
Take `NC1CCC(CCCC2CCCC2)CC1` (stereo not drawn): the T/C under setting [7] was 96 % of control, the T/C under setting [8] is 86 % of control and the T/C under setting [9] was 89 % of control.
As to `CN(C)CCCN1c2ccccc2Sc2ccccc21`, the T/C is, setting by setting: (dose: 4.6 mg/kg/injection, schedule: Q01DX009 (ip), vehicle: saline) 111 % of control; (dose: 9.3 mg/kg/injection, schedule: Q01DX009 (ip), vehicle: saline) 111 % of control; under setting [10], 101 % of control; (dose: 18.75 mg/kg/injection, schedule: Q01DX009 (ip), vehicle: saline) 120 % of control; (dose: 35.5 mg/kg/injection, schedule: Q01DX009 (ip), vehicle: saline) 111 % of control; under setting [11], 97 % of control. The T/C under setting [12] was 95 % of control.
Turning to `O=C1C=C(c2ccccc2)C(=O)C=C1c1ccccc1`, the T/C (dose: 6.0 mg/kg/injection, schedule: Q04DX003 (ip), vehicle: gum acacia) was 100 % of control; the T/C (dose: 12.0 mg/kg/injection, schedule: Q04DX003 (ip), vehicle: gum acacia) is 91 % of control; the T/C (dose: 25.0 mg/kg/injection, schedule: Q04DX003 (ip), vehicle: gum acacia) was 92 % of control and 93 % of control.
For `COc1ccc(CCN2C(=O)CSC2=S)cc1OC`, the T/C under setting [9] is 100 % of control; the T/C under setting [1] was 88 % of control; the T/C under setting [4] was 94 % of control and 98 % of control; the T/C under setting [2] is 89 % of control and 94 % of control; the T/C under setting [5] was 104 % of control; the T/C under setting [6] was 89 % of control. In addition, the T/C is 90 % of control and 94 % of control (dose: 200.0 mg/kg/injection, schedule: Q01DX009 (ip), vehicle: saline with Tween-80); 94 % of control (dose: 200.0 mg/kg/injection, schedule: Q04DX003 (ip), vehicle: saline with Tween-80).
In the case of `CCNC(C)(C)C(S)c1ccc(Cl)s1` (stereo not drawn), the T/C is, setting by setting: under setting [10], 97 % of control; under setting [9], 97 % of control; under setting [11], 101 % of control; under setting [1], 101 % of control; under setting [12], 100 % of control; under setting [2], 95 % of control. In addition, the T/C (dose: 150.0 mg/kg/injection, schedule: Q01DX009 (ip), vehicle: saline with Tween-80) was 106 % of control.
With `CCOC(=O)/C(C(C)=O)=C(/O)c1ccc(OC(F)(F)C(F)Cl)cc1OC(F)(F)C(F)Cl.CCOC(=O)/C(C(C)=O)=C(/O)c1ccc(OC(F)(F)C(F)Cl)cc1OC(F)(F)C(F)Cl.[Cu]` (stereo not drawn), the T/C under setting [8] was 89 % of control and the T/C under setting [9] was 88 % of control.
